Publication PMC7413254 (Nature Communications, 2020)

Legend:
Type in all cases: cell-based
PfCRT^Dd2 [1] = target: T1, PfCRT^Dd2 (Plasmodium falciparum, UniProt Q9N623, A220S/I356T/K76T/M74I/N326S/N75E/Q271E/R371I); assay: cell-based; conditions: for PfCRT-mediated [3H]CQ transport, trans-stimulation (% PfCRTDd2 control): PfCRTDd2 oocytes, normalised to oocyte type control; for [3H]CQ transport (% PfCRTDd2 control), trans-stimulation, PfCRTDd2: PfCRT-mediated component (background subtracted), mean ± SEM, SEM
T1 sequence (Q9N623 whole entry A220S/I356T/K76T/M74I/N326S/N75E/Q271E/R371I): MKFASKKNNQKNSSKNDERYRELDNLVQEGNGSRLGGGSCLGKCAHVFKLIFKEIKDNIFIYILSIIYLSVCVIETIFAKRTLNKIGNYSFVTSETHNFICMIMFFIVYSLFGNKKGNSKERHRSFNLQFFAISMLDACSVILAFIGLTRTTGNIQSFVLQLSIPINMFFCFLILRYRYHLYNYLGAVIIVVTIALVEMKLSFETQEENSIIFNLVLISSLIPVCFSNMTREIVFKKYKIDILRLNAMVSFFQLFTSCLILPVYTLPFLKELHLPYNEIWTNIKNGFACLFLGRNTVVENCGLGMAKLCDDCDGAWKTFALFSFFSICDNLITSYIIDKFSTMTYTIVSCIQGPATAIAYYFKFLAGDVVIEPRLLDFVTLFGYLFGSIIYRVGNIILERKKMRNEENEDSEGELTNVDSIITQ
Protocol: (§1) Unless specified otherwise, the transport assays were conducted over 1.5 h at 27.5 °C and the reaction buffer was ND96 (96 mM NaCl, 2 mM KCl, 1 mM MgCl2, 1.8 mM CaCl2, 10 mM MES and 10 mM Tris-base) at pH 5.5.
(§2) The intracellular concentrations were calculated using previous estimates of the volume of stage V–VI oocytes (~400 nL[60]). […] The oocytes were injected with VF-6 suspended in 25 nL ND96 buffer adjusted to pH 5.0, 5.5, 6.0 or 7.0, which corresponded to the injection of 2.5–250 fmol of H^+. The Na^+-dependence of the trans-stimulatory effect of VF-6 was assessed by injecting the oocytes with VF-6 suspended in ND96 buffer (pH 5.5) or a Na^+-free version of this buffer (the Na^+ was replaced with choline).
(§3) At least four independent experiments were performed (on different days and using oocytes from different frogs), and within each experiment measurements were made from ten oocytes per treatment.

PfCRT^Ecu1110 [2] = target: T2, PfCRT^Ecu1110 (Plasmodium falciparum, UniProt Q9N623, A220S/I356L/K76T/N326D); assay: cell-based; conditions: for PfCRT-mediated [3H]CQ transport, trans-stimulation (% PfCRTEcu1110 control): PfCRTEcu1110 oocytes, normalised to oocyte type control; for [3H]CQ transport (% PfCRTDd2 control), trans-stimulation, PfCRTEcu1110: PfCRT-mediated component (background subtracted), sheet title says normalised to PfCRTDd2 control, mean ± SEM, SEM
T2 sequence (Q9N623 whole entry A220S/I356L/K76T/N326D): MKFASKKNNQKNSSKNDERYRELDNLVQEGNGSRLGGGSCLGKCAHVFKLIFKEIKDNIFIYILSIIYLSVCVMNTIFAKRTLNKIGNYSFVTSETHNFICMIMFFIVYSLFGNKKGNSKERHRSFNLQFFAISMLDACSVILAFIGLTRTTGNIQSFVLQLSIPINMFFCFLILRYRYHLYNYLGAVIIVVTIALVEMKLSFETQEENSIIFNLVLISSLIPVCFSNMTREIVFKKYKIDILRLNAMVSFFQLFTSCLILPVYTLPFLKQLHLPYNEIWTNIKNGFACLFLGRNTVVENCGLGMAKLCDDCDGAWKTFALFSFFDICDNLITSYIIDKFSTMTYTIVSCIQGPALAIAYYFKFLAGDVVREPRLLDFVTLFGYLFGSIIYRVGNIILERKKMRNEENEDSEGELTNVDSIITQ
Protocol: as §1, §2, §3

PfCRT^3D7 = PfCRT^3D7 (Plasmodium falciparum, UniProt Q8IBZ9); assay: cell-based; conditions: PfCRT3D7 oocytes, normalised to oocyte type control
Chain of PfCRT^3D7 (Q8IBZ9 59-398): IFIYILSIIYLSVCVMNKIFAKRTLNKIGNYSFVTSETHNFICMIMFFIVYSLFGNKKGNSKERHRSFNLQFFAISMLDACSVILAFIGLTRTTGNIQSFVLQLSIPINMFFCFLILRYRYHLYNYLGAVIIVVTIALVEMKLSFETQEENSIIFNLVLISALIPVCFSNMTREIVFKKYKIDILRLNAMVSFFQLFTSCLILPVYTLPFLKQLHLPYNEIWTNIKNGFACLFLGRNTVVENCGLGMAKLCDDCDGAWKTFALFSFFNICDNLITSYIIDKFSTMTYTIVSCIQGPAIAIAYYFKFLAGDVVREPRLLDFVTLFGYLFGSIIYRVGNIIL
Protocol: as §1, §2, §3

PfCRT^Dd2 [3] = target: T1, PfCRT^Dd2; assay: [3H]CQ uptake into Xenopus oocytes, cis-inhibition by unlabelled solute; conditions: PfCRTDd2 oocytes, background [3H]CQ accumulation subtracted, normalised to oocyte type control
Text: (§4) The orientation of PfCRT in the parasite’s DV membrane, and also in the oocyte plasma membrane, is such that its N- and C-termini extend into the cytosol. The oocytes were suspended in a reaction buffer adjusted to pH 5.5 to mimic the pH of the DV lumen[1],[2]. In this scenario, the transport of a substrate via PfCRT from the acidic extracellular solution into the oocyte cytosol[15] is analogous to the parasite’s PfCRT-mediated efflux of a substrate from the acidic DV and into the cytosol. Unless specified otherwise, this is the direction in which substrate transport was measured in the oocyte assays.
as §1
(§5) Ten oocytes were washed twice with the relevant ND96 buffer. […] The assay was terminated by removing the reaction buffer and washing the oocytes with ice-cold ND96 buffer. The oocytes were lysed in 10% (w/v) sodium dodecyl sulfate (SDS) and the radioactivity accumulated within each oocyte was measured with a MicroBeta^2 microplate liquid scintillation analyser (PerkinElmer).
as §3

PfCRT^Ecu1110 [4] = target: T2, PfCRT^Ecu1110; assay: as above; conditions: for PfCRT-mediated [3H]CQ transport, cis-inhibition (% PfCRTEcu1110 control): PfCRTEcu1110 oocytes, background [3H]CQ accumulation subtracted, normalised to oocyte type control; for [3H]CQ transport (% PfCRTEcu1110 control), cis-inhibition, PfCRTEcu1110: PfCRT-mediated component (background subtracted), sheet title says normalised to PfCRTDd2 control, mean ± SEM, SEM
Text: as §4, §1, §5, §3

[5] = [test solute]i = 5 mM (intracellular)
[6] = [test solute]i = 45 mM (intracellular; 30 mM for some solutes due to solubility)
[7] = [test solute]i = 5 mM (injected)
[8] = [test solute]i = 45 mM (30 mM for some solutes due to solubility)

Row | Substance | PfCRT-mediated [3H]CQ transport, trans-stimulation (% PfCRTDd2 control) (PfCRT^Dd2 [1]; [5]) | PfCRT-mediated [3H]CQ transport, trans-stimulation (% PfCRTDd2 control) (PfCRT^Dd2 [1]; [6]) | [3H]CQ transport (% PfCRTDd2 control), trans-stimulation, PfCRTDd2 (PfCRT^Dd2 [1]; [7]) | [3H]CQ transport (% PfCRTDd2 control), trans-stimulation, PfCRTDd2 (PfCRT^Dd2 [1]; [8]) | PfCRT-mediated [3H]CQ transport, trans-stimulation (% PfCRTEcu1110 control) (PfCRT^Ecu1110 [2]; [5]) | PfCRT-mediated [3H]CQ transport, trans-stimulation (% PfCRTEcu1110 control) (PfCRT^Ecu1110 [2]; [6]) | [3H]CQ transport (% PfCRTDd2 control), trans-stimulation, PfCRTEcu1110 (PfCRT^Ecu1110 [2]; [7]) | [3H]CQ transport (% PfCRTDd2 control), trans-stimulation, PfCRTEcu1110 (PfCRT^Ecu1110 [2]; [8]) | PfCRT-mediated [3H]CQ transport, trans-stimulation (% PfCRT3D7 control) (PfCRT^3D7; [5]) | PfCRT-mediated [3H]CQ transport, trans-stimulation (% PfCRT3D7 control) (PfCRT^3D7; [6]) | PfCRT-mediated [3H]CQ transport, cis-inhibition (% PfCRTDd2 control) (PfCRT^Dd2 [3]; [test solute] = 0.5 mM) | PfCRT-mediated [3H]CQ transport, cis-inhibition (% PfCRTDd2 control) (PfCRT^Dd2 [3]; [test solute] = 1 mM) | PfCRT-mediated [3H]CQ transport, cis-inhibition (% PfCRTDd2 control) (PfCRT^Dd2 [3]; [test solute] = 2 mM) | PfCRT-mediated [3H]CQ transport, cis-inhibition (% PfCRTEcu1110 control) (PfCRT^Ecu1110 [4]; [test solute] = 0.5 mM) | PfCRT-mediated [3H]CQ transport, cis-inhibition (% PfCRTEcu1110 control) (PfCRT^Ecu1110 [4]; [test solute] = 1 mM) | PfCRT-mediated [3H]CQ transport, cis-inhibition (% PfCRTEcu1110 control) (PfCRT^Ecu1110 [4]; [test solute] = 2 mM) | [3H]CQ transport (% PfCRTEcu1110 control), cis-inhibition, PfCRTEcu1110 (PfCRT^Ecu1110 [4]; [test solute] = 1 mM) | [3H]CQ transport (% PfCRTEcu1110 control), cis-inhibition, PfCRTEcu1110 (PfCRT^Ecu1110 [4]; [test solute] = 2 mM)
1 | TPPVQ [TQ-5] | 96 ± 3.2 % PfCRTDd2 control | 97 ± 4.5 % PfCRTDd2 control | 96 ± 3.2 % PfCRTDd2 control | 97 ± 4.5 % PfCRTDd2 control | 96 ± 3.5 % PfCRTEcu1110 control | 96 ± 2.3 % PfCRTEcu1110 control | 29 ± 1.6 % PfCRTEcu1110 control | 30 ± 1.6 % PfCRTEcu1110 control | 94 ± 3.5 % PfCRT3D7 control | 96 ± 4.2 % PfCRT3D7 control | 50 ± 2.1 % PfCRTDd2 control | 30 ± 2.1 % PfCRTDd2 control | 15 ± 0.3 % PfCRTDd2 control | 56 ± 3.1 % PfCRTEcu1110 control | 49 ± 2.6 % PfCRTEcu1110 control | 42 ± 2.4 % PfCRTEcu1110 control | 15 ± 0.1 % PfCRTEcu1110 control | 13 ± 0.1 % PfCRTEcu1110 control
2 | HVDPENF [HF-7] | 100 ± 1.9 % PfCRTDd2 control | 112 ± 1.7 % PfCRTDd2 control | 100 ± 1.9 % PfCRTDd2 control | 112 ± 1.7 % PfCRTDd2 control | 131 ± 3.7 % PfCRTEcu1110 control | 138 ± 4.1 % PfCRTEcu1110 control | 40 ± 2.1 % PfCRTEcu1110 control | 42 ± 1.5 % PfCRTEcu1110 control | 140 ± 5.2 % PfCRT3D7 control | 189 ± 6.2 % PfCRT3D7 control | 40 ± 2.3 % PfCRTDd2 control | 31 ± 2.3 % PfCRTDd2 control | 18 ± 0.6 % PfCRTDd2 control | 41 ± 1.8 % PfCRTEcu1110 control | 31 ± 3.1 % PfCRTEcu1110 control | 22 ± 0.4 % PfCRTEcu1110 control | – | 7.0 ± 0.01 % PfCRTEcu1110 control
